Test results as given in PMC8791529, “Schistosoma mansoni α-N-acetylgalactosaminidase (SmNAGAL) regulates coordinated parasite movement and egg production” (PLoS Pathogens, 2022).

Target: T1, SmNAGAL (Smp_089290) (Schistosoma mansoni, UniProt A0A8F5XXF6)
T1 construct: gene NAGAL; native enzyme in soluble worm antigen preparation (SWAP) of adult worms, not purified; assigned by siRNA knockdown
Assay: colorimetric hydrolysis at […] nm in worm extract, with siRNA knockdown
Format: biochemical
Conditions: 0.15 M McIlvaine buffer pH 4.6, 37 °C, 60 min; SWAP of siLuc and siSmp_089290 worms

## CC(=O)N[C@H]1[C@@H](Oc2ccc([N+](=O)[O-])cc2)O[C@H](CO)[C@H](O)[C@@H]1O [4-Nitrophenyl N-acetyl-α-D-galactosaminide]
  colorimetric hydrolysis at 410 nm in worm extract, with siRNA knockdown: smnagal depletion in siRNA-treated worms significantly reduced α-NAGAL activity in SWAP
